Data published in patent publication US9546157B2, “Asymmetric piperidinyl-substituted ureas as medicines” (Helsinn Healthcare SA, priority 2014, dated 2017).

Columns and labels:
[1] = Metabolic Stability (H = Human); assay type: in vitro ADME
[2] = molecular target: T1, GHSR1a (Homo sapiens, UniProt Q92847); assay: Calcium FLIPR assay, GHSR-1a agonism; assay type: cell-based; set-up: Emax: unit not given here; settings: HEK293/GHSR1a cells
T1 construct: expressed in transfected cells; host or cells: HEK293
T1 sequence (Q92847 whole entry): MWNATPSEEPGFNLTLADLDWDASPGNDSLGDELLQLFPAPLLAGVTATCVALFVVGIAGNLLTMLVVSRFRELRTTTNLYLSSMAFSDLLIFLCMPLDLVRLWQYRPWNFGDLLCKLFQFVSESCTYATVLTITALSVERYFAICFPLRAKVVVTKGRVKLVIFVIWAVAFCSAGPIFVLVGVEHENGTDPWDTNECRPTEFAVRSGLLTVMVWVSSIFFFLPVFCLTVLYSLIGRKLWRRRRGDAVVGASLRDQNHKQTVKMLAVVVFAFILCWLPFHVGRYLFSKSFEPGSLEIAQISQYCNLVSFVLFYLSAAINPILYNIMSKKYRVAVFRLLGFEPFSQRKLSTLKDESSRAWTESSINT
Procedure, shortened: (§1)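 Relative fluorescence read-out (FLIPR) of intracellular calcium in HEK293/GHSR1a cells. For antagonist mode, compound and 10 nM ghrelin were co-added at t=20 sec, and inhibition of the ghrelin response over 2 minutes gave IC50. Agonist mode: compound alone at t=20 sec, response tracked 2 minutes; EC50 from dose-response.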

[3] = Metabolic Stability (M = Mouse); assay type: in vitro ADME
[4] = system: C57BL/6J mice; assay: Food intake test in mouse (GHSR1a antagonists); assay type: in vivo; settings: for inhibition in vivo at 10 mg/kg: ip, 1 h
Procedure: Male C57BL/6J mice, 18-22 g body weight, were fasted overnight (16 h before compound administration) and placed in a regular light dark cycle (6:00-18:00 light/18:00-6:00 dark). After 1 wk acclimation, animals were sorted into two groups (n=6 each, 2 per cage) based on body weight. Animals in group one were be treated with vehicle and animals in group 2 were treated with the test agent (n=6 for each group). The cumulative food intake was evaluated at 1, 2, 4, 8 and 24 hrs after drug or vehicle treatment. Food intake was measured by subtracting uneaten food from the initial premeasured food.

[5] = molecular target: T1, GHSR1a; assay: Calcium FLIPR assay, GHSR-1a antagonism (reduction of ghrelin response); assay type: cell-based; settings: HEK293/GHSR1a cells, ghrelin 10 nM
Procedure, shortened: as §1

[6] = PO 10 mg/kg + ANA (ANAM) 30 mg/kg mice

Row | Compound | Metabolic Stability H [1] | EC50 [2] [nM] | Emax [2] | Metabolic Stability M [3] | IC50 [5] [nM] | further results
1 | CC(NC(=O)N(C)C1CCN(C)CC1)c1ccc(-c2cccs2)c(Cl)c1Cl (single isomer, unassigned) [Compound H0563, 3-(1-(2,3-dichloro-4-(thiophen-2-yl)phenyl)ethyl)-1-methyl-1-(1-methylpiperidin-4-yl)urea] | Medium H Medium M | 3 | 2100 | Medium H Medium M | – | inhibition in vivo at 10 mg/kg ([4]; Mus musculus, i.p. 10 mg/kg): 65%
2 | Cc1noc(-c2ccc(C(C)NC(=O)N(C)C3CCN(C)CC3)c(Cl)c2Cl)n1 (stereo not shown) [Compound H0596, 3-(1-(2,3-dichloro-4-(3-methyl-1,2,4-oxadiazol-5-yl)phenyl)ethyl)-1-methyl-1-(1-methylpiperidin-4-yl)urea] | High H High M | 3 | – | High H High M | 9 | Mouse Food Intake, result in words ([4]; i.p. 10 mg/kg): NSE (10 mg/kg)
3 | CN1CCC(N(O)C(=O)NC(CC2CC2)c2ccc(-c3cnccn3)c(Cl)c2Cl)CC1 (single isomer, unassigned) [Compound H0782, 3-(2-cyclopropyl-1-(2,3-dichloro-4-(pyrazin-2-yl)phenyl)ethyl)-1-hydroxy-1-(1-methylpiperidin-4-yl)urea] | – | 6 | 1923 | – | 5 | inhibition in vivo at 10 mg/kg ([4]; Mus musculus, i.p. 10 mg/kg): 93%
4 | C[C@H](NC(=O)N(C)C1CCN(C)C1)c1ccc(C#CC2CC2)c(Cl)c1Cl (stereo partly drawn) [Compound H0838, 3-((S)-1-(2,3-dichloro-4-(cyclopropylethynyl)phenyl)ethyl)-1-methyl-1-(1-methylpyrrolidin-3-yl)urea] | – | 21 | 1340 | – | 4 | Mouse Food Intake increase, activity up to ([4]; 30 mg/kg PO mice): ≤ 8 h; Mouse Food Intake % increase ([4]; 2 h, 30 mg/kg PO mice): 205%
5 | CC(NC(=O)N(C)C1CCN(C)CC1)c1ccc(-c2csc(C3CC3)n2)c(Cl)c1Cl (stereo not shown) [Compound H0841, 3-(1-(2,3-dichloro-4-(2-cyclopropylthiazol-4-yl)phenyl)ethyl)-1-methyl-1-(1-methylpiperidin-4-yl)urea] | – | > 30000 | – | – | 118 | Mouse Food Intake, result in words [4, 6]: PO 10 mg/kg + ANAM 30 mg/kg mice: NSE
6 | CC(NC(=O)N(C)C1CCN(C)CC1)c1ccc(C#CC2CC2)c(Cl)c1Cl (single isomer, unassigned) [Compound H0818, 3-(1-(2,3-dichloro-4-(cyclopropylethynyl)phenyl)ethyl)-1-methyl-1-(1-methylpiperidin-4-yl)urea] | – | 3.5 | 1915 | – | 1.7 | inhibition in vivo at 30 mg/kg ([4]; Mus musculus, po, 4 h, 30 mg/kg PO fasted mice): 22%
7 | CC(NC(=O)N(C)C1CCN(C)CC1)c1ccc(-c2nccnc2F)c(Cl)c1Cl (stereo not shown) [Compound H0840] | – | > 30000 | – | – | 47 | Mouse Food Intake, result in words [4, 6]: PO 10 mg/kg + ANA 30 mg/kg mice: NSE
8 | CC(NC(=O)N(C)C1CCN(C)C1)c1ccc(-c2cn[nH]c2)c(Cl)c1Cl (stereo not shown) [Compound H0529, 3-(1-(2,3-dichloro-4-(1H-pyrazol-4-yl)phenyl)ethyl)-1-methyl-1-(1-methylpyrrolidin-3-yl)urea] | Medium | > 30000 | – | Poor | 12 | –
9 | CCN(C(=O)NC(c1ccc(-c2cnccn2)c(Cl)c1Cl)C(F)(F)F)C1CCN(C)CC1 (stereo not shown) [Compound H0909, 3-(1-(2,3-dichloro-4-(pyrazin-2-yl)phenyl)-2,2,2-trifluoroethyl)-1-ethyl-1-(1-methylpiperidin-4-yl)urea] | Medium | > 30000 | – | High | 12 | –
10 | CC(NC(=O)N(C)C1CCN(C)CC1)c1ccc(-c2ccc(CO)s2)c(Cl)c1Cl (stereo not shown) [Compound H0653, 3-(1-(2,3-dichloro-4-(5-(hydroxymethyl)thiophen-2-yl)phenyl)ethyl)-1-methyl-1-(1-methylpiperidin-4-yl)urea] | Medium H Medium M | 9 | 1815 | Medium H Medium M | 4 | –
11 | CN1CCC(N(C)C(=O)NC(C#N)c2ccc(-c3ccsc3)c(Cl)c2Cl)CC1 (stereo not shown) [Compound H0644, 3-(cyano(2,3-dichloro-4-(thiophen-3-yl)phenyl)methyl)-1-methyl-1-(1-methylpiperidin-4-yl)urea] | Medium H Medium M | 28 | 2822 | Medium H Medium M | 6 | –
12 | CC(NC(=O)N(C)C1CCN(C)CC1)c1ccc(-c2cncc(CO)c2)c(Cl)c1Cl (stereo not shown) [Compound H0636, 3-(1-(2,3-dichloro-4-(5-(hydroxymethyl)pyridin-3-yl)phenyl)ethyl)-1-methyl-1-(1-methylpiperidin-4-yl)urea] | High | > 30000 | – | Medium | 90 | –
13 | CC(NC(=O)N(C)C1CCN(C)CC1)c1ccc(-c2cncc(C(F)F)c2)c(Cl)c1Cl (stereo not shown) [Compound H0637, 3-(1-(2,3-dichloro-4-(5-(difluoromethyl)pyridin-3-yl)phenyl)ethyl)-1-methyl-1-(1-methylpiperidin-4-yl)urea] | Medium H Medium M | > 30000 | – | Medium H Medium M | 85 | –
14 | CN1CCC(N(C)C(=O)NC(CC2CC2)c2ccc(-c3ccc(C(N)=O)s3)c(Cl)c2Cl)CC1 (stereo not shown) [Compound H0728, 5-(2,3-dichloro-4-(2-cyclopropyl-1-(3-methyl-3-(1-methylpiperidin-4-yl)ureido)ethyl)phenyl)thiophene-2-carboxamide] | Medium H Medium M | > 30000 | – | Medium H Medium M | 5 | –
15 | CN1CCC(N(C)C(=O)NC(CC2CC2)c2ccc(-c3cccnc3)c(Cl)c2Cl)CC1 (stereo not shown) [Compound H0720, 3-(2-cyclopropyl-1-(2,3-dichloro-4-(pyridin-3-yl)phenyl)ethyl)-1-methyl-1-(1-methylpiperidin-4-yl)urea] | Medium | > 30000 | – | High | 8 | –
16 | CC(NC(=O)N(C)C1CCN(C)CC1)c1ccc(-c2cnc3[nH]ncc3c2)c(Cl)c1Cl (stereo not shown) [Compound H0623, 3-(1-(2,3-dichloro-4-(1H-pyrazolo[3,4-b]pyridin-5-yl)phenyl)ethyl)-1-methyl-1-(1-methylpiperidin-4-yl)urea] | Medium | > 30000 | – | Poor | 71 | –
17 | CC(NC(=O)N(C)C1CCN(C)CC1)c1ccc(-c2cccc(N)c2)c2ccccc12 (stereo not shown) [Compound H0591, 3-(1-(4-(3-aminophenyl)naphthalen-1-yl)ethyl)-1-methyl-1-(1-methylpiperidin-4-yl)urea] | Medium H Medium M | 126 | – | Medium H Medium M | 11 | –
18 | CC(NC(=O)N(C)C1CCN(C)CC1)c1ccc(-c2cncc(C=O)c2)c(Cl)c1Cl (stereo not shown) [Compound H0642, 3-(1-(2,3-dichloro-4-(5-formylpyridin-3-yl)phenyl)ethyl)-1-methyl-1-(1-methylpiperidin-4-yl)urea] | Very low | > 30000 | – | Very Low | 78 | –
19 | CC(NC(=O)N(C)C1CCN(C)CC1)c1ccc(C#CC2CC2)c(Cl)c1Cl (single isomer, unassigned) [Compound H0819, 3-(1-(2,3-dichloro-4-(cyclopropylethynyl)phenyl)ethyl)-1-methyl-1-(1-methylpiperidin-4-yl)urea] | – | 140 | 1419 | – | 65 | Mouse Food Intake, result in words ([4]; 30 mg/kg PO fasted mice): 30 mg/kg PO fasted mice NSE
20 | CN1CCC(N(C)C(=O)N[C@@H](c2ccc(-c3cnccn3)c(Cl)c2Cl)C(F)(F)F)CC1 [Compound H0899, (S)-3-(1-(2,3-dichloro-4-(pyrazin-2-yl)phenyl)-2,2,2-trifluoroethyl)-1-methyl-1-(1-methylpiperidin-4-yl)urea] | Medium | > 30000 | – | High | 1600 | –
21 | CN1CCC(N(C)C(=O)NC(COCc2cccc(CO)c2)c2ccc(-c3ccsc3)c(Cl)c2Cl)CC1 (stereo not shown) [Compound H0594, 3-(1-(2,3-dichloro-4-(thiophen-3-yl)phenyl)-2-((3-(hydroxymethyl)benzyl)oxy)ethyl)-1-methyl-1-(1-methylpiperidin-4-yl)urea] | Poor | > 30000 | – | Medium | 54 | –
22 | Cc1ccc(-c2ccc(C(C)NC(=O)N(C)C3CCN(C)CC3)c(Cl)c2Cl)o1 (stereo not shown) [Compound H0665, 3-(1-(2,3-dichloro-4-(5-methylfuran-2-yl)phenyl)ethyl)-1-methyl-1-(1-methylpiperidin-4-yl)urea] | High | 8 | – | Medium | 4 | –
23 | C[C@@H](NC(=O)N(C)C1CCN(C)CC1)c1ccc(-c2cnccn2)c(Cl)c1Cl [Compound H0817, (R)-3-(1-(2,3-dicholoro-4-(pyrazin-2-yl)phenyl)ethyl)-1-methyl-1-(1-methylpiperidin-4-yl)urea] | – | > 30000 | – | – | 94 | Mouse Food Intake, result in words ([4]; 30 mg/kg PO fasted mice): 30 mg/kg PO fasted mice NSE
